Reference: patent publication US10322111B2, “Chemokine receptor binding heterocyclic compounds with enhanced efficacy” (Genzyme Corporation, priority 2001, dated 2019)
Like-named read-outs stand apart in the source and are kept apart here.

Columns and labels:
[1] = system: CFU-GM, BFU-E and CFU-GEMM progenitor cells; settings: for Cycling Status of Progenitors, BFU-E / Cycling Status of Progenitors, CFU-GEMM / Cycling Status of Progenitors, CFU-GM / Cycling Status of Progenitors, CFU-GM, AGAR Culture: 80 μg/kg s.c.
[2] = system: CD34 positive progenitor cells

Compound: c1cc(CN2CCCNCCNCCCNCC2)ccc1CN1CCCNCCNCCCNCC1 [AMD3100, 1,1′-[1,4-phenylene-bis(methylene)]-bis-1,4,8,11-tetraazacyclotetradecane]
- Cycling Status of Progenitors, BFU-E ([1]; P2, T = 24 h after injection): 2%
- Cycling Status of Progenitors, CFU-GEMM ([1]; P2, T = 24 h after injection): 0%
- Cycling Status of Progenitors, CFU-GM ([1]; P2, T = 24 h after injection): 3%
- Cycling Status of Progenitors, CFU-GM, AGAR Culture ([1]; P2, T = 24 h after injection): 0%
- Cycling Status of Progenitors, BFU-E ([1]; P3, T = 1 h after injection): 0%
- Cycling Status of Progenitors, CFU-GEMM ([1]; P3, T = 1 h after injection): 0%
- Cycling Status of Progenitors, CFU-GM ([1]; P3, T = 1 h after injection): 0%
- Cycling Status of Progenitors, CFU-GM, AGAR Culture ([1]; P3, T = 1 h after injection): 0%
- Cycling Status of Progenitors, BFU-E ([1]; P3, T = 3 h after injection): 0%
- Cycling Status of Progenitors, CFU-GEMM ([1]; P3, T = 3 h after injection): 0%
- Cycling Status of Progenitors, CFU-GM ([1]; P3, T = 3 h after injection): 1%
- Cycling Status of Progenitors, CFU-GM, AGAR Culture ([1]; P3, T = 3 h after injection): 0%
- Cycling Status of Progenitors, BFU-E ([1]; P3, T = 6 h after injection): 0%
- Cycling Status of Progenitors, CFU-GEMM ([1]; P3, T = 6 h after injection): 0%
- Cycling Status of Progenitors, CFU-GM ([1]; P3, T = 6 h after injection): 0%
- Cycling Status of Progenitors, CFU-GM, AGAR Culture ([1]; P3, T = 6 h after injection): 3%
- Cycling Status of Progenitors, BFU-E ([1]; P3, T = 9 h after injection): 0%
- Cycling Status of Progenitors, CFU-GEMM ([1]; P3, T = 9 h after injection): 0%
- Cycling Status of Progenitors, CFU-GM ([1]; P3, T = 9 h after injection): 0%
- Cycling Status of Progenitors, CFU-GM, AGAR Culture ([1]; P3, T = 9 h after injection): 0%
- Cycling Status of Progenitors, BFU-E ([1]; P3, T = 24 h after injection): 0%
- Cycling Status of Progenitors, CFU-GEMM ([1]; P3, T = 24 h after injection): 0%
- Cycling Status of Progenitors, CFU-GM ([1]; P3, T = 24 h after injection): 0%
- Cycling Status of Progenitors, CFU-GM, AGAR Culture ([1]; P3, T = 24 h after injection): 0%
- Cycling Status of Progenitors, BFU-E ([1]; P4, T = 1 h after injection): 0%
- Cycling Status of Progenitors, CFU-GEMM ([1]; P4, T = 1 h after injection): 0%
- Cycling Status of Progenitors, CFU-GM ([1]; P4, T = 1 h after injection): 0%
- Cycling Status of Progenitors, CFU-GM, AGAR Culture ([1]; P4, T = 1 h after injection): 0%
- Cycling Status of Progenitors, BFU-E ([1]; P4, T = 3 h after injection): 9%
- Cycling Status of Progenitors, CFU-GEMM ([1]; P4, T = 3 h after injection): 0%
- Cycling Status of Progenitors, CFU-GM ([1]; P4, T = 3 h after injection): 5%
- Cycling Status of Progenitors, CFU-GM, AGAR Culture ([1]; P4, T = 3 h after injection): 0%
- Cycling Status of Progenitors, BFU-E ([1]; P4, T = 6 h after injection): 0%
- Cycling Status of Progenitors, CFU-GEMM ([1]; P4, T = 6 h after injection): 8%
- Cycling Status of Progenitors, CFU-GM ([1]; P4, T = 6 h after injection): 0%
- Cycling Status of Progenitors, CFU-GM, AGAR Culture ([1]; P4, T = 6 h after injection): 0%
- Cycling Status of Progenitors, BFU-E ([1]; P4, T = 9 h after injection): 0%
- Cycling Status of Progenitors, CFU-GEMM ([1]; P4, T = 9 h after injection): 0%
- Cycling Status of Progenitors, CFU-GM ([1]; P4, T = 9 h after injection): 0%
- Cycling Status of Progenitors, CFU-GM, AGAR Culture ([1]; P4, T = 9 h after injection): 0%
- Cycling Status of Progenitors, BFU-E ([1]; P4, T = 24 h after injection): 3%
- Cycling Status of Progenitors, CFU-GEMM ([1]; P4, T = 24 h after injection): 0%
- Cycling Status of Progenitors, CFU-GM ([1]; P4, T = 24 h after injection): 5%
- Cycling Status of Progenitors, CFU-GM, AGAR Culture ([1]; P4, T = 24 h after injection): 0%
- Cycling Status of Progenitors, BFU-E ([1]; P5, T = 1 h after injection): 0%
- Cycling Status of Progenitors, CFU-GEMM ([1]; P5, T = 1 h after injection): 0%
- Cycling Status of Progenitors, CFU-GM ([1]; P5, T = 1 h after injection): 0%
- Cycling Status of Progenitors, CFU-GM, AGAR Culture ([1]; P5, T = 1 h after injection): 3%
- Cycling Status of Progenitors, BFU-E ([1]; P5, T = 3 h after injection): 3%
- Cycling Status of Progenitors, CFU-GEMM ([1]; P5, T = 3 h after injection): 0%
- Cycling Status of Progenitors, CFU-GM ([1]; P5, T = 3 h after injection): 5%
- Cycling Status of Progenitors, CFU-GM, AGAR Culture ([1]; P5, T = 3 h after injection): 0%
- Cycling Status of Progenitors, BFU-E ([1]; P5, T = 6 h after injection): 1%
- Cycling Status of Progenitors, CFU-GEMM ([1]; P5, T = 6 h after injection): 0%
- Cycling Status of Progenitors, CFU-GM ([1]; P5, T = 6 h after injection): 0%
- Cycling Status of Progenitors, CFU-GM, AGAR Culture ([1]; P5, T = 6 h after injection): 1%
- Cycling Status of Progenitors, BFU-E ([1]; P5, T = 9 h after injection): 0%
- Cycling Status of Progenitors, CFU-GEMM ([1]; P5, T = 9 h after injection): 0%
- Cycling Status of Progenitors, CFU-GM ([1]; P5, T = 9 h after injection): 0%
- Cycling Status of Progenitors, CFU-GM, AGAR Culture ([1]; P5, T = 9 h after injection): 0%
- Cycling Status of Progenitors, BFU-E ([1]; P5, T = 24 h after injection): 0%
- Cycling Status of Progenitors, CFU-GEMM ([1]; P5, T = 24 h after injection): 0%
- Cycling Status of Progenitors, CFU-GM ([1]; P5, T = 24 h after injection): 0%
- Cycling Status of Progenitors, CFU-GM, AGAR Culture ([1]; P5, T = 24 h after injection): 0%
- cycling state of progenitors ([1]; human donors, prior to and 1, 3, 6, 9 and 24 hours after injection): slow or non-cycling state
- time post-administration at which elevation of CD34 positive progenitor cells maximized ([2]; human volunteers, 80 μg/kg s.c.): 6 h
- CD34 positive cells ([2]; volunteer P1, 1 Hr after 80 μg/kg s.c.): .04 percentage of the total WBC's
- CD34 positive cells ([2]; volunteer P1, 3 Hr after 80 μg/kg s.c.): .07 percentage of the total WBC's
- CD34 positive cells ([2]; volunteer P1, 6 Hr after 80 μg/kg s.c.): .11 percentage of the total WBC's
- CD34 positive cells ([2]; volunteer P1, 9 Hr after 80 μg/kg s.c.): .11 percentage of the total WBC's
- CD34 positive cells ([2]; volunteer P1, Day 2 after 80 μg/kg s.c.): .08 percentage of the total WBC's
- CD34 positive cells ([2]; volunteer P2, 1 Hr after 80 μg/kg s.c.): .06 percentage of the total WBC's
- CD34 positive cells ([2]; volunteer P2, 3 Hr after 80 μg/kg s.c.): .08 percentage of the total WBC's
- CD34 positive cells ([2]; volunteer P2, 6 Hr after 80 μg/kg s.c.): .13 percentage of the total WBC's
- CD34 positive cells ([2]; volunteer P2, 9 Hr after 80 μg/kg s.c.): .11 percentage of the total WBC's
- CD34 positive cells ([2]; volunteer P2, Day 2 after 80 μg/kg s.c.): .12 percentage of the total WBC's
- CD34 positive cells ([2]; volunteer P3, 1 Hr after 80 μg/kg s.c.): .16 percentage of the total WBC's
- CD34 positive cells ([2]; volunteer P3, 3 Hr after 80 μg/kg s.c.): .06 percentage of the total WBC's
- CD34 positive cells ([2]; volunteer P3, 9 Hr after 80 μg/kg s.c.): .11 percentage of the total WBC's
- CD34 positive cells ([2]; volunteer P3, Day 2 after 80 μg/kg s.c.): .07 percentage of the total WBC's
- CD34 positive cells ([2]; volunteer P4, 1 Hr after 80 μg/kg s.c.): .07 percentage of the total WBC's
- CD34 positive cells ([2]; volunteer P4, 3 Hr after 80 μg/kg s.c.): .09 percentage of the total WBC's
- CD34 positive cells ([2]; volunteer P4, 6 Hr after 80 μg/kg s.c.): .09 percentage of the total WBC's
- CD34 positive cells ([2]; volunteer P4, 9 Hr after 80 μg/kg s.c.): .1 percentage of the total WBC's
- CD34 positive cells ([2]; volunteer P4, Day 2 after 80 μg/kg s.c.): .1 percentage of the total WBC's
- CD34 positive cells ([2]; volunteer P5, 1 Hr after 80 μg/kg s.c.): .12 percentage of the total WBC's
- CD34 positive cells ([2]; volunteer P5, 3 Hr after 80 μg/kg s.c.): .13 percentage of the total WBC's
- CD34 positive cells ([2]; volunteer P5, 6 Hr after 80 μg/kg s.c.): .2 percentage of the total WBC's
- CD34 positive cells ([2]; volunteer P5, 9 Hr after 80 μg/kg s.c.): .2 percentage of the total WBC's
- CD34 positive cells ([2]; volunteer P5, Day 2 after 80 μg/kg s.c.): .16 percentage of the total WBC's
